Data set [1] has as its target T1, human pancreatic α-amylase (HPA) (Homo sapiens, UniProt P04746).
T1 sequence (P04746 16-511): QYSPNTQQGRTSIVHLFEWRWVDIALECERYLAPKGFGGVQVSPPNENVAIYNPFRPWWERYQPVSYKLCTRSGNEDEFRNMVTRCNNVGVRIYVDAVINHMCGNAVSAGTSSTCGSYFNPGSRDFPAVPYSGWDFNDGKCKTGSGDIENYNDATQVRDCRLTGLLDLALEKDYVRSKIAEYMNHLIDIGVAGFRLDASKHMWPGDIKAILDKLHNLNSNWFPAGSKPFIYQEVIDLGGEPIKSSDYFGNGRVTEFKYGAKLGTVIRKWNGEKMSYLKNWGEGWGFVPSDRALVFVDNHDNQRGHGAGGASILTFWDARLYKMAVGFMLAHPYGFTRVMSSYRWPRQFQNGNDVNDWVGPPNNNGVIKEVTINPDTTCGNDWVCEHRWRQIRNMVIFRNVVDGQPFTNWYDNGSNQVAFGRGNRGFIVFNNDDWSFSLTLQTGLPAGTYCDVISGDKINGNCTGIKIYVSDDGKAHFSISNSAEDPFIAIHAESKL
Kind of data set: Kinetic analysis of HPA inhibition. Type of data set: biochemical.

Data set [2] in a line: Stability in simulated gastric fluid (SGF) by UPLC. The following applies: positive control, 0.5 mg/ml, 37° C., 1 hour. Type of data set: in vitro ADME. How it is done: (§1) The stability of montbretin A in both simulated intestinal fluid (SIF) and simulated gastric fluid (SGF) were analyzed via ultra performance liquid chromatography (UPLC). The instrument consisted of a Waters® Acquity™ UPLC system equipped with a PDA and a TQ detector in tandem. The 2 μL sample injection volume was passed through a Waters® Acquity™ BEH C18 column (1.7 μm, 2.1×100 mm), with mobile phases A and B consisting of water with 0.1% formic acid and acetonitrile with 0.1% formic acid, respectively. The mobile phases were delivered at a programmed linear gradient at a column temperature of 35° C. Linearity was evaluated using a set of montbretin A calibration standards with concentrations ranging from 10 to 100 μg/mL in water. […]
(§2) To examine the gastrointestinal fluid activity, 0.5 mg/ml solutions of oleamide (positive control) in SGF or SIF were prepared by diluting a 100 μL aliquot of oleamide (50 mg/mL in 2-propanol) to 10 mL with either SGF or SIF and incubated in a 37° C. water bath for 1 or 3 hours, respectively. At time points of 1 or 3 hours, the sample was removed from the water bath and a 100 μL aliquot of the resulting solution was diluted to 1 mL with de-ionized water in a glass UPLC glass sample vial and analyzed by UPLC for oleamide content. […]

Data set [3] can be described thus: Stability in simulated intestinal fluid (SIF) by UPLC. It is filed as in vitro ADME. The conditions noted are these: positive control, 0.5 mg/ml, 37° C., 3 hours. How it is done: as §1, §2
Data set [4] can be described thus: Aqueous solubility (observation).
Another data set has as its target T2, human salivary α-amylase (Homo sapiens, UniProt P0DUB6).
T2 sequence (P0DUB6 16-511): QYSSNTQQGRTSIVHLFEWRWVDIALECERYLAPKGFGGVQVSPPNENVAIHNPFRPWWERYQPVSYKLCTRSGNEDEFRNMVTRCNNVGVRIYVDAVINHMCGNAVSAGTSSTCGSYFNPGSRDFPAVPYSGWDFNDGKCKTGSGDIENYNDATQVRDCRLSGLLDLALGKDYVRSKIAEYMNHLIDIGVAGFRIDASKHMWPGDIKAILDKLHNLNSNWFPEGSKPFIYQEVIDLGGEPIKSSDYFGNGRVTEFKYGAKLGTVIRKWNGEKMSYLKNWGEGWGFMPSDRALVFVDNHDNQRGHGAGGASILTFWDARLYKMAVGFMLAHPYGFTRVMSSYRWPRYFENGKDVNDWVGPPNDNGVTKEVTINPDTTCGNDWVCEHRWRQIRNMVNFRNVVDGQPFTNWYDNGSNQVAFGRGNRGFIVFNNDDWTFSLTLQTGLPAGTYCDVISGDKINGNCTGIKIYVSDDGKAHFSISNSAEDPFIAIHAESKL
The following applies: Lo Piparo et al., J. Med. Chem. 2008; read-out: IC50, inhibition of human salivary α-amylase; cited from earlier work.

The target in data set [5] is T3, porcine pancreatic α-amylase (Sus scrofa, UniProt P00690).
T3 sequence (P00690 16-511): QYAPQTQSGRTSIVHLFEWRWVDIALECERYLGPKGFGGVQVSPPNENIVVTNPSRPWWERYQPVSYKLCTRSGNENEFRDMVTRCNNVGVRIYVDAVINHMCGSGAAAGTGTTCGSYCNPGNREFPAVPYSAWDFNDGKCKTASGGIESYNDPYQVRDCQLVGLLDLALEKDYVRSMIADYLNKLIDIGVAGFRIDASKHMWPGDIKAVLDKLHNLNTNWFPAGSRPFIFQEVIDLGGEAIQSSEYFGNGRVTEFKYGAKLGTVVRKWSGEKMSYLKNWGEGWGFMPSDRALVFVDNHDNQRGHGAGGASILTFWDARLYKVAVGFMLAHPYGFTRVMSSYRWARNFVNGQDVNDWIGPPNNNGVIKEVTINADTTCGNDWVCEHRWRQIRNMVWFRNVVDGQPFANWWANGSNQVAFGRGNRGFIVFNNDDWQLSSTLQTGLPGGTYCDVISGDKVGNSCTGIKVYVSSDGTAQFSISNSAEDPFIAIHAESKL
The conditions noted are these: Taderal et al. 2006; read-out: IC50, inhibition of porcine pancreatic α-amylase; cited from earlier work.

Data set [6] has as its system control and STZ-diabetic rats. As to the kind of experiment: Acute starch tolerance test. Type of data set: in vivo, rat. The conditions noted are these: STZ-diabetic rats, starch tolerance test; extracts 5 mg/kg. How it is done: Twenty-four animals were obtained at 200-250 g of body weight and randomly divided into control and diabetic groups. Diabetes was induced by a single intravenous tail vein injection of streptozotocin 60 mg/kg in 0.9% normal saline. Control rats received normal saline injections only. Animals were subsequently divided into acarbose untreated and treated. […] Starch was obtained from Fisher Scientific and a 17.5% suspension was made in distilled water. The dose of starch given was […].
The animals were fasted overnight. A basal blood sample was collected (50 μl volume) and then at 30, 60, 90 and 120 minutes post drug administration. Starch and starch+acarbose was administered by oral gavage. Blood was centrifuged at 10,000 g×25 minutes and plasma collected for determination of glucose levels using a Beckman Glucose Analyzer II™. There was no difference in body weight among the groups. There was a significant increase in plasma glucose 30 and 60 minutes following starch administration in the diabetic untreated group only.
The twenty-four animals from Example 6 were used following a wash out period of one week. Animals were divided into montbretin A untreated and treated. The four treatment groups were: control, n=6, control+montbretin A, n=6, diabetic, n=6 and diabetic+montbretin A, n=6. The procedures used in Example 6 were employed. Montbretin A was dissolved in distilled water at a concentration of 10 mg/ml and given at a volume of 1 ml/kg. The dose of montbretin A given was 10 mg/kg. There was no difference in body weight among the groups. There was a significant increase in plasma glucose levels in the diabetic untreated group at 30 and 60 minutes following starch administration.
A study was done to determine the effect of various amounts of montbretin A and montbretin extracts on plasma glucose levels in response to a starch challenge in STZ-diabetic rats. Diabetic animals used in the previous Examples were used following a wash out period of one week. The six experimental groups were: diabetic (D, n=3) diabetic+montbretin A (5 mg/kg), (DT5, n=3), diabetic+montbretin A (1 mg/kg), (DT1, n=3), diabetic+montbretin A (0.5 mg/kg), (DT0.5, n=3), diabetic+Crocosmia corm methanol extract (5 mg/kg), (DM, n=3) and diabetic+Crocosmia corm ethanol extract (5 mg/kg), (DE, n=2).
Montbretin A was dissolved in distilled water at a concentration of 5, 1 or 0.5 mg/ml and given at a volume of 1 ml/kg. The methanol extract contained montbretin A at a concentration of 3.2 mg/ml and ethanol extract at a concentration of 1.6 mg/ml. These extracts were dried and resuspended in distilled water. There was no difference in body weight among the groups. […] Diarrhea occurred in 2 out 3 animals given the methanol extract and in 1 out of 2 animals given the ethanol extract. […]

[7] abbreviates: range finder method, Dixon plot, fixed substrate concentration.

As to `CC1O[C@@H](O[C@@H]2CO[C@@H](Oc3c(O)cc(-c4oc5cc(O)cc(O)c5c(=O)c4O[C@@H]4OC(C)[C@H](O)[C@H](O)C4O[C@@H]4OC(COC(=O)/C=C/c5ccc(O)cc5)[C@@H](O)[C@@H](O)C4O[C@@H]4OC(CO)[C@@H](O)[C@@H](O)C4O)cc3O)C(O)[C@@H]2O)C(O)[C@@H](O)[C@H]1O` (some centres unmarked) [Montbretin B, montbretin B], in data set [1] (setting [7]), the Ki was found to be 3.6 ± 0.1 µM. As for `CCCCCCCC/C=C\CCCCCCCC(N)=O` [Oleamide, oleamide, reference compound], in data set [2], the “change of concentration after incubation in SGF” value was “significant decrease in concentration”. Further, in data set [3], the “change of concentration after incubation in SIF” value was “significant decrease in concentration”. As for `CCOC(=O)/C=C/c1ccc(O)c(O)c1` [ethyl caffeiate, reference compound], the “mode of inhibition of HPA” value in data set [1] (double reciprocal plot) was “non-competitive”. The molecule further yielded a Ki in data set [1] (varied substrate and inhibitor concentrations, GraFit) of 1300 ± 100 µM. Further, the aqueous solubility result in data set [4] was “limited aqueous solubility”. For `O=c1c(O)c(-c2cc(O)c(O)c(O)c2)oc2cc(O)cc(O)c12` [myricetin], the 50% inhibitory concentration (IC50) is greater than 9 µM on human salivary α-amylase and 380 µM in data set [5]. The aqueous solubility entry in data set [4] is “limited aqueous solubility”. Consider montbretin A, for which, in data set [6], the occurrence of diarrhea entry was “No diarrhea”. montbretin C: in data set [1] (setting [7]), the affinity, expressed as Ki, was 6.1 ± 0.1 µM.

Source of the values: patent US8431541B2, “Alpha-amylase inhibitors: the montbretins and uses thereof” (The University of British Columbia, priority 2007, dated 2013).
